Results taken from patent publication US20070191465A1, “Channel blocking compounds” (priority 2003, published 2007).
Several values for one entry are separate records, joined by “and”; a condition that tells them apart may be missing. Identical values can stand only once. Entries after “also recorded” stand apart in the source; their conditions may differ.

How the values were obtained:
[1] = target: T1, hSlo α subunit large conductance calcium-activated potassium (BK) channels (Homo sapiens, UniProt Q12791); experiment: Inside-out patch clamp of hSlo α subunit BK channels expressed in HEK293 cells; assay type: cell-based; details: for BK channel current as fraction of the control response: α subunit
T1 construct: expressed in transfected cells; host or cells: HEK293 (transient; co-transfected with CD4 as a marker)
Protocol: In this experiment, hSlo α subunit large conductance calcium-activated potassium (BK) channels with an N-terminal c-myc tag in the mammalian vector pcDNA (Meera et al, 1997) were transiently expressed in human embryonic kidney cells (cell type HEK293).
Human embryonic kidney cells were grown in a mix of DMEM (Dulbecco's Modified Eagle Medium, GibcoBRL Cat#12100-038) and 2.5 mM HEPES (N-[2-Hydroxyethyl]piperazine-N′-[2-ethanesulfonic acid]), supplemented with minimal essential amino acids and 10% fetal bovine serum.
Cells were subsequently plated into 24-well plates, grown to 95% confluency and transfected 24 hours later with 10 μg of hSlo and 2 μg CD4 (pcDNA) and 2 µl Lipofectamine 2000™.
Cells were plated onto cover slips 24 hours later. CD4 antibody-labelled beads were used to identify transfected cells. Macroscopic currents were recorded from excised inside-out patches at 3 days post-transfection.
A stock of 100 μM Lolitrem B was made up in dimethyl sulfoxide (DMSO). This was diluted to the appropriate concentration in electrophysiological solutions.
The bath solution that was applied to the internal side of the cell membrane of the inside-out membrane patch was (mM): 140 KMeSO3, 2 KCl, 20 HEPES (N-[2-Hydroxyethyl]piperazine-N′-[2-ethanesulfonic acid]), 5 HEDTA (N-([2-hydroxyethyl)ethylene-diaminetriacetic acid) and 3.65 CaCl2 to give 10 μM free calcium with a pH of 7.2.
The pipette solution applied to the extemal side of the cell membrane of the inside-out membrane patch was (mM): 140 KMeSO3, 2 KCl, 20 HEPES, and 2 MgCl2, with a pH of 7.2.
Macroscopic currents were recorded in an inside-out patch-clamp configuration using an amplifier, interface and data collection software. Data were filtered at 5 kHz and sampled at 20 μs intervals. Fast capacitance compensation was used to cancel the fast transient. Leak subtraction was used although the background potassium current was small.
Channels were activated by voltage pulses to +150 mV every minute in the presence of 10 μM free calcium. Control current responses were recorded over 5 minutes. Only patches that remained stable over this time were used in experiments.
Each concentration of lolitrem B was applied for 5 minutes or until the current response had stabilised and fractional block calculated as the decrease in current as a fraction of the control. The current amplitude was the mean current over the last half of the voltage pulse to +150 mV.

α+β1 BK channels = target: T2, α+β1 BK channels (Homo sapiens, UniProt Q12791); experiment: Patch clamp of α+β1 BK channels expressed in human embryonic kidney cells; assay type: cell-based; details: for IC50: IC50, α + β1, +150 mV, 10 μM internal free calcium; for h = Hill coefficient: α + β1
T2 construct: expressed in transfected cells; host or cells: human embryonic kidney cells (HEK293)
Protocol: (§1) Current amplitude (I′) 5 minutes after addition of increasing lolitriol concentrations, shown as a fraction of the control response. Lolitriol was applied to α+β1 channels (solid circles) and to α+β4 channels (open circles). 31-epilolitrem B was applied to α+β1 channels (solid triangles) and to α+β4 channels (open triangles). Shaded triangles are data points from a single cell to which the curve was fitted. Lolitrem B was applied to hSlo channels (solid squares) a previous study and is shown for comparison. The current response was averaged over the last half of a voltage pulse to +150 mV for 50 ms, with 10 μM internal free calcium. The vertical bars show ±1 S.E.M. in 3 or more cells. The curve is a fit of a Hill-type equation to the data.
(§2) We used BK channels containing beta subunits that are expressed in smooth muscle ([…]) and brain (β4). BK channels with subunit combinations α+β1 or α+β4 were expressed in human embryonic kidney cells and their function assayed by patch clamping.
(§3) hSlo α subunit large conductance calcium-activated potassium channels in pcDNA3 (Meera et al., 1997) together with the human β4 subunit in pEGFP-N1 were transiently expressed in human embryonic kidney cells (HEK293). HEK cells were grown in a mix of DMEM (Dulbecco's Modified Eagle Medium) and 2.5 mM HEPES (N-[2-Hydroxyethyl]-piperazine-N′-[2-ethanesulfonic acid]), supplemented with minimal essential amino acids and 10% fetal bovine serum. Cells were subsequently plated onto 24-well plates, grown to 95% confluency and transfected 24 hours later with 10 μg of hSlo, 8 μg of β4 and 2 μl Lipofectamine 2000™. Cells were plated onto cover slips 24 hours later. Transfected cells expressed green fluorescent protein and were identified under UV light by their fluorescence.

BK channel [2] = target: T3, BK channel (Homo sapiens, UniProt Q12791); experiment: Degree of antagonist inhibition of BK channels, subunit composition not stated; assay type: cell-based
[3] = target: T4, α+β4 BK channels (hSlo α subunit with human β4 subunit) (Homo sapiens, UniProt Q12791); experiment: Patch clamp of α+β4 BK channels expressed in human embryonic kidney cells; assay type: cell-based; details: for h = Hill coefficient: α + β4
T4 construct: expressed in transfected cells; host or cells: HEK293 (transient)
Protocol: as §1, §2, §3

mice = details: known from literature (Munday-Finch); cited from earlier work
BK channel [4] = target: T3, BK channel; details: McMillan et al., 2003; cited from earlier work

T2 sequence (Q12791 whole entry): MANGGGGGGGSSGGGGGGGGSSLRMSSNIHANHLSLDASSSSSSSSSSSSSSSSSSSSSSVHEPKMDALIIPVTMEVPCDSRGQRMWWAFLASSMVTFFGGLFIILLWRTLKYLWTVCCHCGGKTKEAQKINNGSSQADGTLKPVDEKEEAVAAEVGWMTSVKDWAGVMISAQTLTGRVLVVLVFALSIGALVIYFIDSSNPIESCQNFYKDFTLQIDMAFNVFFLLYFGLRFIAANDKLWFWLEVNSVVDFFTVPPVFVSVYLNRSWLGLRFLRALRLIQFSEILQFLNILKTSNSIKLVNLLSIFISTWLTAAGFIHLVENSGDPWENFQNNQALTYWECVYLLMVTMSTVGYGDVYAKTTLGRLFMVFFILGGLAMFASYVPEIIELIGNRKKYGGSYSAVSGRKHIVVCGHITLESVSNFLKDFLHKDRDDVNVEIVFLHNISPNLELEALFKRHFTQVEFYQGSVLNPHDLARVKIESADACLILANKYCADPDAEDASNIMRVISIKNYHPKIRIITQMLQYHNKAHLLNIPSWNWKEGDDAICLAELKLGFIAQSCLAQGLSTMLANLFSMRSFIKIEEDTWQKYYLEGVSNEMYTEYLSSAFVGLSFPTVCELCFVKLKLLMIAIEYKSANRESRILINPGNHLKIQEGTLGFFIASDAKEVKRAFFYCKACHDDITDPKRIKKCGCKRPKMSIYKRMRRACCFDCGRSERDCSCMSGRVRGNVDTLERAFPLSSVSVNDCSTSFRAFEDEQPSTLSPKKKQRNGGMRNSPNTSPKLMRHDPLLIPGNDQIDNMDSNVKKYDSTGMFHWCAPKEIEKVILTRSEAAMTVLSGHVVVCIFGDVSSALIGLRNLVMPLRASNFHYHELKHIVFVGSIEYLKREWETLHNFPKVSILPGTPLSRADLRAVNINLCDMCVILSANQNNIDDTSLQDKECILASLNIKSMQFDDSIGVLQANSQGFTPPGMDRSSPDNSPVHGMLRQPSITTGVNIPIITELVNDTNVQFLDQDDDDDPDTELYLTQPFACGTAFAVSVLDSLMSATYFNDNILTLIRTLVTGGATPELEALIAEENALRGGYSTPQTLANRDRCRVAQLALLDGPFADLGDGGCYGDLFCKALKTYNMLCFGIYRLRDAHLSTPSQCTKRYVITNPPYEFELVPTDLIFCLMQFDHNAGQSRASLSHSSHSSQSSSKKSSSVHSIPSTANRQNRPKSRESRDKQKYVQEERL
T2 sequence (Q16558 whole entry partner): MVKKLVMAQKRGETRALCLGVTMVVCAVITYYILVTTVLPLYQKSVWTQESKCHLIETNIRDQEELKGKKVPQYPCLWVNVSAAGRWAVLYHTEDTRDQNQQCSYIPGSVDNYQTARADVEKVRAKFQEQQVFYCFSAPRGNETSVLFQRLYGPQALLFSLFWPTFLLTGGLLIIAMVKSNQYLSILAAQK
T3 sequence (Q12791 whole entry): as the sequence (Q12791 whole entry) above
T4 sequence (Q12791 whole entry): as above
T4 sequence (Q86W47 whole entry partner): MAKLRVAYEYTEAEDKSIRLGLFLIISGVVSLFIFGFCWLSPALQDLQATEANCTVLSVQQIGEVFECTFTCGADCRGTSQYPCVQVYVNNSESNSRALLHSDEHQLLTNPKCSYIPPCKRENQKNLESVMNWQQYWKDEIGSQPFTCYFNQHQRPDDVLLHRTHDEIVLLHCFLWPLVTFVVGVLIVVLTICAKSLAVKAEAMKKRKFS
T1 sequence (Q12791 whole entry): as the sequence (Q12791 whole entry) above

Compound | BK channel current as fraction of the control response ([1]; 100 nM) | IC50 (α+β1 BK channels) | h = Hill coefficient (α+β1 BK channels) | h = Hill coefficient [3] | tremorgenicity (mice) | other results
CC(C)=CC1OC2C(OC3CCC4(C)C5(C)c6[nH]c7ccc8c(c7c6CC5CCC4(O)C34OC24)CC2C(C8=O)C(C)(C)OC2(C)C)C(C)(C)O1 (centres unmarked) [31-epilolitrem B] | 0.06±0.02 | ~58 nM and 58 nM | 2.7 | 2.2 | non-tremorgenic | current response as fraction of control after wash-out ([1]; after 100 nM, wash-out with control solution for 26 minutes, one experiment): 0.59; degree of antagonist inhibition (BK channel [2]; approximately 200 nM): approximately 100%
CC1(C)OC(C)(C)C2C(=O)c3ccc4[nH]c5c(c4c3CC21)C[C@@H]1CC[C@@]2(O)C3=CC(=O)[C@@H](C(C)(C)O)OC3CC[C@]2(C)[C@@]51C (some centres unmarked) [lolilline] | – | – | – | – | non-tremorgenic | –
CC(C)=CC1OC2C(OC3CCC4(C)C5(C)c6[nH]c7ccc8c(c7c6CC5CCC4(O)C34OC24)CC2C(C8=O)C(C)(C)OC2(C)C)C(C)(C)O1 (centres unmarked) [lolitrem B] | – | – | – | – | tremorgenic | inhibition of the BK channel current (in words) ([1]; 2 nM): partial inhibition; reversal of current block by wash-out ([1]; 10 nM or greater, wash-out with control solution for 30 minutes at 4 ml/min): not able to be reversed; also recorded: could not be reversed; inhibition of the BK channel current (in words) ([1]; 20 nM applied to the perfusion bath): complete inhibition; IC50 ([1]; IC50 (concentration of half maximal inhibition), α alone, voltage pulse to +150 mV, 10 μM free calcium, Hill equation fit, 11 cells): 3.7 nM and ~3.7 nM; degree of antagonist inhibition ([1]; approximately 20 nM): approximately 97%; h = Hill coefficient ([1]; α alone): 1.7
CC(C)=CCOC(C)(C)[C@H]1O[C@H]2CC[C@@]3(C)[C@@](O)(CC[C@H]4Cc5c([nH]c6ccc7c(c56)C[C@@H]5[C@@H](C7=O)C(C)(C)OC5(C)C)[C@@]43C)[C@]23O[C@@H]3[C@@H]1O [lolitrem E] | 0.01 | – | – | – | partial-tremorgenic | degree of antagonist inhibition ([1]; approximately 100 nM): approximately 100%
CC(C)(O)C1OC2CCC3(C)C4(C)c5[nH]c6ccc7c(c6c5CC4CCC3(O)C23OC3C1O)CC1C(C7=O)C(C)(C)OC1(C)C (centres unmarked) [lolitriol] | 0.29 | ~195 nM and 195 nM | 2.3 | 2.7 | non-tremorgenic | BK channel current as fraction of the control response ([1]; 200 nM): 0.25; current response as fraction of control after wash-out ([1]; wash-out with control solution for 30 minutes at 4 ml/min): 0.86; degree of antagonist inhibition (BK channel [2]; approximately 1000 nM): approximately 100%; concentration required to inhibit α+β4 channels compared with α+β1 channels ([3]; α+β4 versus α+β1): Twice
desoxypaxilline [reference compound] | – | – | – | – | non-tremorgenic | concentration needed for the same degree of BK inhibition as paxilline (BK channel [4]): 24 times
